Values quoted from earlier work as cited in patent US20150374773A1, “Homeopathic Composition Comprising Hypericum Perforatum Extract And Essential Oils For The Treatment Of Neuropathic Pain” (NEURAGEN CORP., priority 2008, published 2015).

System: neuropathic pain
Conditions: literature statement

Nc1nnc(-c2cccc(Cl)c2Cl)c(N)n1 [Lamotrigine]
efficacy in neuropathic pain: no better than placebo

NCC1(CC(=O)O)CCCCC1 [gabapentin]
efficacy in neuropathic pain: effective in painful diabetic neuropathy, mixed neuropathies, and postherpetic neuralgia
